From US3984470A, “Amidoxime derivatives and process for preparing the same” (priority 1974, dated 1976)

Tests used:
[1] = system: aggressivity of killer rats; experiment: Aggressivity of killer rats; type: in vivo, male rats; conditions: for inhibition in vivo at 25 mg/kg: 25 mg/kg i.p.; for antiaggressive properties: conclusion from Table V; for inhibition in vivo at 20 mg/kg: 20 mg/kg i.p.
Source text: If, under certain conditions, male rats are kept alone in individual cages for several weeks, the become spontaneously aggressive towards any mouse, which they kill as soon as it is placed in the same cage. Mice were introduced one after another into cages containing an isolated rat and a selection was made of the rats which immediately killed three mice. In this way batches of 6 to 8 rats were constituted. The rats were then given the compound to be studied by intraperitoneal route in such a way that each batch received a higher dose than the preceding batch. […] Table V which follows contains the results obtained 30 minutes after administration of the compound to be studied.

[2] = system: stereotypies induced by amphetamine; experiment: Potentiation of the stereotypies induced by amphetamine; type: in vivo, rats
Description: It is commonly admitted that amphetamine induces stereotypies by stimulating the dopaminergic receptors and inhibiting the re-uptake of dopamine into the neuron.
The thymoanaleptics potentiate these stereotypies.
Thirty minutes later, a dose of 10 mg/kg of the compound to be tested was given by oral route. Note was taken of the intensity of the stereotypies every 30 minutes for 150 minutes in accordance with the following scale which indicates the behaviour of the animal.
0 : the rat is motionless and asleep
1 : the rat is motionless and awake
3 : the rat stands on its hind paws and sniffs the lid of its cage in a stereotyped manner.
4 : the rat licks the walls of its cage in a stereotyped manner
5 : the rat bites the bars of its cage or sniffs the shavings of its litter in a stereotyped manner
6 : the rat chews the shavings in a stereotyped manner
The average of the 5 results obtained for each batch was calculated and compared with the average obtained with the control animals.
The difference between these averages represents the mean increase of the steroetypies of the treated animals in comparison with the controls.

reserpine-induced ptosis = experiment: Reserpine-induced ptosis in the rat; type: in vivo, male rats of the CF1 strain; conditions: reserpine 5 mg/kg i.p., score scale 0-4, mean to 6th hour vs controls
Description: (§1) The thymoanaleptic properties of the compounds of the invention were determined by means of reserpine-induced ptosis and hypothermia in the rat.
An intraperitoneal dose of 5 mg/kg of reserpine was administered to batches of 5 male rats of the CF1 strain weighing an average of 300 g.
Thirty minutes later a dose of the compound to be studied was given by oral route and the inhibitory effect of the reserpine was noted every hour up to the sixth hour. Ptosis was evaluated for each eye in accordance with the following scale:
4 : eyelids completely closed.
The difference between these two averages represents the average decrease of the ptosis in the treated animals as compared to the controls.

toxicity of yohimbine = experiment: Potentiation of the toxicity of yohimbine (test of QUINTON); type: in vivo, male mice; conditions: yohimbine hydrochloride 25 mg/kg i.p.; for mortality at 50 mg/kg: Mus musculus, 50 mg/kg oral, mortality after 24 hours
Description: Yohimbine is a substance which provokes an increase in the serotonine level in the brain or a decrease in norepinephrine according to the author.
For this purpose, the test of QUINTON was used which is described in Brit. J. Pharmacol. 21, 51 (1963). […] […] The percentage of mortality was noted after 24 hours.
Table III hereunder expresses the percentage of potentiation of the toxicity due to yohimbine in comparison with the controls.
The percentage in question was determined 24 hours after the administration of yohimbine.

[3] = system: reserpine-induced hypothermia; experiment: Reserpine-induced hypothermia in the rat; type: in vivo, male rats CF1; conditions: reserpine 5 mg/kg i.p., mean to 6th hour vs controls
Description: as §1
An intraperitoneal dose of 5 mg/kg of reserpine was administered to batches of 5 male rats CF1 weighing an average of 300 g. Thirty minutes later, the rectal temperature was determined and then a dose of the compound to be tested was given by oral route, except to the control animals. The rectal temperature of all the animals including the controls was taken every hour up to the 6th hour.
The difference between these two averages enabled an estimation to be made regarding the antagonistic effect of the compounds of the invention on the hypothermia induced by reserpine.

spontaneous motricity = experiment: Spontaneous motricity in the mouse; type: in vivo; conditions: 50 mg/kg intragastric, mouse
Description: Tests were also performed with a view to determining whether the compounds of the invention modify spontaneous motricity.

[4] = Rattus norvegicus, ip, 0.5 h, 30 minutes after administration
[5] = 10 mg/kg oral, amphetamine 10 mg/kg i.p., every 30 min for 150 min
[6] = 20 mg/kg, same conditions (amphetamine 10 mg/kg i.p.)

Cc1oc2cc(OC(C)(C)C(N)=NO)ccc2c1C [Compound 4, 2-(2,3-Dimethyl-6-benzofuryloxy)-2-methyl-propionamidoxime]
inhibition in vivo at 25 mg/kg [1, 4]: 25% | Average increase of the stereotypies [2, 5]: 0.8 | Average decrease of Ptosis (reserpine-induced ptosis; 10 mg/kg oral): 2.1 | mortality at 50 mg/kg (toxicity of yohimbine): 30% | Average inhibition of hypothermia (positive °C) ([3]; 10 mg/kg oral): 0.6 °C

CC(Oc1cccc2c1OCC2)C(N)=NO (stereo not drawn) [Compound 9, 2-(2,3-Dihydro-7-benzofuryloxy)-propionamidoxime]
influence on spontaneous motricity (spontaneous motricity): no influence on the spontaneous motricity | Average increase of the stereotypies [2, 5]: 6.2 | Average decrease of Ptosis (reserpine-induced ptosis; 10 mg/kg oral): 1.3 | mortality at 50 mg/kg (toxicity of yohimbine): 10% | Average inhibition of hypothermia (positive °C) ([3]; 10 mg/kg oral): 0.5 °C

NC(CCOc1cccc2ccoc12)=NO [Compound 8, 3-(7-Benzofuryloxy)-propionamidoxime]
influence on spontaneous motricity (spontaneous motricity): no influence on the spontaneous motricity | inhibition in vivo at 25 mg/kg [1, 4]: 70% | Average increase of the stereotypies [2, 5]: 5.6 | Average decrease of Ptosis (reserpine-induced ptosis; 10 mg/kg oral): 1.3 | mortality at 50 mg/kg (toxicity of yohimbine): 30% | Average inhibition of hypothermia (positive °C) ([3]; 10 mg/kg oral): 0.4 °C

NC(COc1ccc2occc2c1)=NO [Compound 5, 2-(5-Benzofuryloxy)-acetamidoxime]
inhibition in vivo at 25 mg/kg [1, 4]: 60% | Average decrease of Ptosis (reserpine-induced ptosis; 10 mg/kg oral): 1.9 | mortality at 50 mg/kg (toxicity of yohimbine): 10% | Average inhibition of hypothermia (positive °C) ([3]; 10 mg/kg oral): 0.5 °C

NC(COc1cccc2sccc12)=NO [Compound 26, 2-(4-Benzothienyloxy)-acetamidoxime]
inhibition in vivo at 25 mg/kg [1, 4]: 27% | Mean increase of the stereotypies ([2]; 20 mg/kg oral, 5 mg/kg of amphetamine): 6.8 | Average decrease of Ptosis (reserpine-induced ptosis; 20 mg/kg oral): 1.4 | Potentiation of the toxicity of yohimbine (toxicity of yohimbine; 20 mg/kg oral, 24 hours): 50%

NC(CCOc1ccc2ccccc2c1)=NO [Compound 18, 3-(2-Naphthyloxy)-propionamidoxime]
inhibition in vivo at 25 mg/kg [1, 4]: 100% | antiaggressive properties [1]: powerful antiaggressive properties | Average decrease of Ptosis (reserpine-induced ptosis; 10 mg/kg oral): 0.4 | mortality at 50 mg/kg (toxicity of yohimbine): 10%

CCC(Oc1cccc2ccccc12)C(N)=NO (stereo not drawn) [Compound 34]
inhibition in vivo at 1 mg/kg ([1]; Rattus norvegicus, ip, 0.5 h, 1 mg/kg i.p., 30 minutes after administration): 100% | antiaggressive properties [1]: powerful antiaggressive properties | mortality at 50 mg/kg (toxicity of yohimbine): 10% | Average inhibition of hypothermia (positive °C) ([3]; 10 mg/kg oral): 1.1 °C

CCC(Oc1cccc2c1OCCO2)C(N)=NO (stereo not drawn) [Compound 14, 2-[(1,4-Benzodioxanyl)-5-oxy]-butyramidoxime]
inhibition in vivo at 25 mg/kg [1, 4]: 80% | Average increase of the stereotypies [2, 5]: 4.2 | Average decrease of Ptosis (reserpine-induced ptosis; 10 mg/kg oral): 0.6 | Average inhibition of hypothermia (positive °C) ([3]; 10 mg/kg oral): 0.4 °C

CC(C)(Oc1cccc2ccoc12)C(N)=NO [Compound 30, 2-(7-Benzofuryloxy)-2-methyl-propionamidoxime]
inhibition in vivo at 20 mg/kg [1, 4]: 75% | Average increase of the stereotypies [2, 6]: 6.5 | Average decrease of Ptosis (reserpine-induced ptosis; 100 mg/kg oral): 2.3 | Average inhibition of hypothermia (positive °C) ([3]; 100 mg/kg oral): 1 °C

Cc1cc2cc(OCC(N)=NO)ccc2o1 [Compound 33, 2-(2-Methyl-5-benzofuryloxy)-acetamidoxime]
inhibition in vivo at 20 mg/kg [1, 4]: 60% | Average increase of the stereotypies [2, 6]: 4 | Average decrease of Ptosis (reserpine-induced ptosis; 100 mg/kg oral): 2.0

Cc1oc2ccccc2c1OCC(N)=NO [Compound 12, 2-(2-Methyl-3-benzofuryloxy)-acetamidoxime]
inhibition in vivo at 25 mg/kg [1, 4]: 27% | Average decrease of Ptosis (reserpine-induced ptosis; 10 mg/kg oral): 0.7

NC(CCOc1cccc2ccccc12)=NO [Compound 6, 3-(1-Naphthyloxy)-propionamidoxime]
inhibition in vivo at 25 mg/kg [1, 4]: 30% | Average decrease of Ptosis (reserpine-induced ptosis; 10 mg/kg oral): 1.5 | mortality at 50 mg/kg (toxicity of yohimbine): 30%

CCc1oc2ccccc2c1OC(C)(C)C(N)=NO [Compound 46, 2-(2-Ethyl-3-benzofuryloxy)-2-methyl-propionamidoxime]
inhibition in vivo at 25 mg/kg [1, 4]: 100% | Average increase of the stereotypies [2, 5]: 6.6 | mortality at 50 mg/kg (toxicity of yohimbine): 10%
